Tests used:
[1] = target: T1, cardiac ryanodine receptor (RyR2) (Homo sapiens, UniProt Q92736); test: single-channel recording of purified hRyR2 in planar lipid bilayers; association and dissociation rates of block; format: biochemical
T1 construct: recombinant eGFP-hRyR2, purified from HEK293 cells

[2] = target: T2, Nav1.5 channel (Homo sapiens, UniProt Q14524); test: INa recording, use-dependent block at […] Hz ([…] NU-FL); format: cell-based
T2 construct: gene SCN5A; recombinant Nav1.5 in HEK293 (H-Flp/Nav1.5) cells

[3] = target: T2, Nav1.5 channel; test: INa recording, use-dependent block at […] Hz ([…] QX-FL); format: cell-based
[4] = target: T1, cardiac ryanodine receptor (RyR2); test: single-channel recording of purified hRyR2 in planar lipid bilayers, +[…] mV, cytosolic to luminal K+ current; format: biochemical

T1 sequence (Q92736 whole entry): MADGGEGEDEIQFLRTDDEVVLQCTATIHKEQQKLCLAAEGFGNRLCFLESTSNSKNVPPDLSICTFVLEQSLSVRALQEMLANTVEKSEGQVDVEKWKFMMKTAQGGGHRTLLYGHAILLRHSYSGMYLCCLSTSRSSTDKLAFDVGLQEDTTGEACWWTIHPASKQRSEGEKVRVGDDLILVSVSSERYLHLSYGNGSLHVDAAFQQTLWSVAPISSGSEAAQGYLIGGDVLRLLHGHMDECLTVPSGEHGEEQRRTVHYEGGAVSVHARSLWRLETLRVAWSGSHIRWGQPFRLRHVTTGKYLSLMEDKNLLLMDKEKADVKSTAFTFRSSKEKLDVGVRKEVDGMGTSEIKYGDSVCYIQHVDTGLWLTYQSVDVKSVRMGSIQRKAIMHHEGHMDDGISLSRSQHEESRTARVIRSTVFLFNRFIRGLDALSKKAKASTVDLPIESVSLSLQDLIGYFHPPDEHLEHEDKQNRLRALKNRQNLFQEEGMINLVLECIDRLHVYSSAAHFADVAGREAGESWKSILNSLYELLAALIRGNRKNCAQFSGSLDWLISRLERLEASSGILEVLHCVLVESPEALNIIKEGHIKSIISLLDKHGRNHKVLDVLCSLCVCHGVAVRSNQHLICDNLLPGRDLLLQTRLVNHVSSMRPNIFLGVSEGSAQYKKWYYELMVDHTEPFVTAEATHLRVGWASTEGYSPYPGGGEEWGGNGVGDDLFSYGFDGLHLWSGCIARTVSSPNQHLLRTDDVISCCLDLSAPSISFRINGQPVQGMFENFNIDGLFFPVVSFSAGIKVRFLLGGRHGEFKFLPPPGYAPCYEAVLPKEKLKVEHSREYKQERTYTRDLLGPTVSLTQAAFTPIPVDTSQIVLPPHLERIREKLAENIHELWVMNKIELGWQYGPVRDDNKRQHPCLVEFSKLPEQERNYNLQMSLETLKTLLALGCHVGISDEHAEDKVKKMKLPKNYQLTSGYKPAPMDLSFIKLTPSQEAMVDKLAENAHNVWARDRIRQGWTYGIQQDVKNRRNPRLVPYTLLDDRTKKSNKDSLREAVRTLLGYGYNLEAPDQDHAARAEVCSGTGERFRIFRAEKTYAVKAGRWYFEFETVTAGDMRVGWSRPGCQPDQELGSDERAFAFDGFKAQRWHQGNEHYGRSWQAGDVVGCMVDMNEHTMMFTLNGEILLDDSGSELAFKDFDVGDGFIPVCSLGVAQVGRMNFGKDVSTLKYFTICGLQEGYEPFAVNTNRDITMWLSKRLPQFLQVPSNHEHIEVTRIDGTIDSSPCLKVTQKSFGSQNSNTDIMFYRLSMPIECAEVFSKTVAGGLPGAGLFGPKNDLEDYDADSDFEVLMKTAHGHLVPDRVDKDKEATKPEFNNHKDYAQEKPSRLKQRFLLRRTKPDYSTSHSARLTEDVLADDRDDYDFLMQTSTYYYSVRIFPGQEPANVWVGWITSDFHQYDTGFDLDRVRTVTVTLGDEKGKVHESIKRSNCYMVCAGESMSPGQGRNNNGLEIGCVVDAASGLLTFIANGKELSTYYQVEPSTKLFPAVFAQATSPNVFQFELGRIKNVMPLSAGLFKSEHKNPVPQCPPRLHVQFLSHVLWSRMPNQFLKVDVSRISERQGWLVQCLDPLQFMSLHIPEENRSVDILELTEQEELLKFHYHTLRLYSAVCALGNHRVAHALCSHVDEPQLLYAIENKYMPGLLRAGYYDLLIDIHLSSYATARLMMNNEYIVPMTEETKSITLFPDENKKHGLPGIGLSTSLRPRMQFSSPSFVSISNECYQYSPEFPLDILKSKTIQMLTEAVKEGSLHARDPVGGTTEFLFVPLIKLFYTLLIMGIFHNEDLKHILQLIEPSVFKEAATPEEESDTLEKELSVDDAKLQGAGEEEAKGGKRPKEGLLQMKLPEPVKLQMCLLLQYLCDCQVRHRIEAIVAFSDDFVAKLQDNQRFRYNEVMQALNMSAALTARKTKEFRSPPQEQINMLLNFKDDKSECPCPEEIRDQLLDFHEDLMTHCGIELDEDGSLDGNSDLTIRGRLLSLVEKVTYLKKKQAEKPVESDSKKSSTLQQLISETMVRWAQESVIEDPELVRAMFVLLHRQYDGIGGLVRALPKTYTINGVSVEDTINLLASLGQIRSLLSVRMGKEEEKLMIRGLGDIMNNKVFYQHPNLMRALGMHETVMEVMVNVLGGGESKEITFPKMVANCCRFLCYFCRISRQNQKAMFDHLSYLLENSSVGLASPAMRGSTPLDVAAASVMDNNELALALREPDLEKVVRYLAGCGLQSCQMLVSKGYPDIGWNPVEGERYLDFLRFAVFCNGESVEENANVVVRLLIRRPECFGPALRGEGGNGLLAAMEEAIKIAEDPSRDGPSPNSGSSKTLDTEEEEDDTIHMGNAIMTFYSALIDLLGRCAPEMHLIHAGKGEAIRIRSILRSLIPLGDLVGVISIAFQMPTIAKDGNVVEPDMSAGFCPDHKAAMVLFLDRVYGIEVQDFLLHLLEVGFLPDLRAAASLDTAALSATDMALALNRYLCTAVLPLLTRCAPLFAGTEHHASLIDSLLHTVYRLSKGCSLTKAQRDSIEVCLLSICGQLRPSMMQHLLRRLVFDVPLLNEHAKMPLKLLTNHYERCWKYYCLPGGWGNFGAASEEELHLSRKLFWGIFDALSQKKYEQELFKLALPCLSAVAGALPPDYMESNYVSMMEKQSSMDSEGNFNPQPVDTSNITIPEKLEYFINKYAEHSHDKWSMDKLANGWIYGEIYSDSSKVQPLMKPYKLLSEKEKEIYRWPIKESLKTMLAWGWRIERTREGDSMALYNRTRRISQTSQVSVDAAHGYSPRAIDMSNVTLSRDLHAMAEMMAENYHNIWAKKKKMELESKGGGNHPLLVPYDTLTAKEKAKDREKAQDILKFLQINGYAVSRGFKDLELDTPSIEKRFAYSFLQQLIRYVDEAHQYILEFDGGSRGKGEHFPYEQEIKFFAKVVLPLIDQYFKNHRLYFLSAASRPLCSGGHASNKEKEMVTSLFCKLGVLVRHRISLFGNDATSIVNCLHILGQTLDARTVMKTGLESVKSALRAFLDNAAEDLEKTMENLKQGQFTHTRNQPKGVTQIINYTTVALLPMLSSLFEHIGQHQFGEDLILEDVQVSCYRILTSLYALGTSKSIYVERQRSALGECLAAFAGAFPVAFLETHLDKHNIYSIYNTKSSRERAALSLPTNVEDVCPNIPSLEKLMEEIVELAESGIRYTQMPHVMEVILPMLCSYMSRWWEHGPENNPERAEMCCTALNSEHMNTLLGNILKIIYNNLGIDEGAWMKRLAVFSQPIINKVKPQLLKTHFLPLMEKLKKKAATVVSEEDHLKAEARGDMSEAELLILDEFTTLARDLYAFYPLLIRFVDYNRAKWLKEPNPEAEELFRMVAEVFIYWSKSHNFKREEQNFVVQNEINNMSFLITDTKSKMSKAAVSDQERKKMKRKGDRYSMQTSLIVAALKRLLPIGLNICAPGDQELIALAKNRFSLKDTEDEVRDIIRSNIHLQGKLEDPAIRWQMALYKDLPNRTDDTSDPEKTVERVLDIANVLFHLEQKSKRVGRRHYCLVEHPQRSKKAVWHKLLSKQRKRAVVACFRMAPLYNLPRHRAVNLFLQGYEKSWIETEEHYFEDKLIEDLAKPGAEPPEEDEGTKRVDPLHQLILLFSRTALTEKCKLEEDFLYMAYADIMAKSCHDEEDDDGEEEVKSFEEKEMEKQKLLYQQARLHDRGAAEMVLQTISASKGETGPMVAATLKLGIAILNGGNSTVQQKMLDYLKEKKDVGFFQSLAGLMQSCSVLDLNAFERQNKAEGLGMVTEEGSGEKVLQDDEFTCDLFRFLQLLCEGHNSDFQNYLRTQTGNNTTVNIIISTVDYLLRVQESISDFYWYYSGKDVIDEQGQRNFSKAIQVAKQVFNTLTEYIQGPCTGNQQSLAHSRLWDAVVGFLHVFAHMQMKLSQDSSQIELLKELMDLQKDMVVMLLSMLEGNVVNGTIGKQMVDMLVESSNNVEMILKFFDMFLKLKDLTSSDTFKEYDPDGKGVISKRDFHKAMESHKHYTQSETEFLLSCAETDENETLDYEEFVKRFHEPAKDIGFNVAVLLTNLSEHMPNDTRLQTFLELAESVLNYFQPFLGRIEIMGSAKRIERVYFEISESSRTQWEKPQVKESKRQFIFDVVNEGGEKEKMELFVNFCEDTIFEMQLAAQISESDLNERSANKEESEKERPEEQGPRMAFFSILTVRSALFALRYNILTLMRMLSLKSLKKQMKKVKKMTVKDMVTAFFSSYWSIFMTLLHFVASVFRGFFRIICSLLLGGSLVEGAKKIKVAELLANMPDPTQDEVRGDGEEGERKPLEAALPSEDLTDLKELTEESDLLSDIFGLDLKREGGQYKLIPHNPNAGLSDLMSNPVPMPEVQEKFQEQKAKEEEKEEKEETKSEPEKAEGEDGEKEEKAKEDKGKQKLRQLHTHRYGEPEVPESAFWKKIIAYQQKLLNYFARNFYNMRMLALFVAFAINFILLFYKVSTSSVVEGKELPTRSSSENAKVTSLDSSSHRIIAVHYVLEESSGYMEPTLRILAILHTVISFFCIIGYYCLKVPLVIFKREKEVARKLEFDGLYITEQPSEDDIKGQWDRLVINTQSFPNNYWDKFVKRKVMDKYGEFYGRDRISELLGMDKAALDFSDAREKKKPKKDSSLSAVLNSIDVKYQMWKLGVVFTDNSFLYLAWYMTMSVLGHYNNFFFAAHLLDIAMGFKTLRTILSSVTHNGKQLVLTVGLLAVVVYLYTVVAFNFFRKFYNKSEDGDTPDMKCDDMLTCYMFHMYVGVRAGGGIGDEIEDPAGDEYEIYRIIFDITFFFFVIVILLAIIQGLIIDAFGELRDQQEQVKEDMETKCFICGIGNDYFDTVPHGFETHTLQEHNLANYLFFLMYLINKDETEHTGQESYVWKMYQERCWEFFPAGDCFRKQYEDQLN

Kd [4] [µM]	SMILES	kon [1] [M⁻¹ s⁻¹]	INa recording, use-dependent block at 10 Hz (10 and 100 μM NU-FL) [2]	INa recording, use-dependent block at 10 Hz (10 μM QX-FL) [3]
	O=C(NCCN1CCOCC1)c1cc(OCC(F)(F)F)ccc1OCC(F)(F)F [NU-FL]	6.2e+08 ± 5e+07	Use‐dependent block (UDB) of voltage gated Na^+ channel current (INa) by flecainide analogues, NU‐FL and QX‐FL.	
	C[N+]1(C)CCCCC1CNC(=O)c1cc(OCC(F)(F)F)ccc1OCC(F)(F)F (centres unmarked) [QX-FL]	9.1e+08 ± 3e+07		Use‐dependent block (UDB) of voltage gated Na^+ channel current (INa) by flecainide analogues, NU‐FL and QX‐FL.
13.1 ± 1.89	O=C(NCC1CCCCN1)c1cc(OCC(F)(F)F)ccc1OCC(F)(F)F (centres unmarked) [flecainide]			

Reference: article PMC4945764, “Effect of flecainide derivatives on sarcoplasmic reticulum calcium release suggests a lack of direct action on the cardiac ryanodine receptor” (British Journal of Pharmacology, 2016)
